Source: ChEMBL document CHEMBL1817626, “The structure-activity relationship of urea derivatives as anti-tuberculosis agents” (Bioorg Med Chem, 2011)
Values after ≈ are worked out from the molar mass of the structure shown.

Tests used:
[1] = molecular target: T1, Hydrolase, alpha/beta hydrolase fold family (Mycobacterium tuberculosis) (UniProt O69638); assay: Inhibition of Mycobacterium tuberculosis recombinant EphE expressed in Escherichia coli BL21 using CMNPC as substrate at 10 nM after 30 mins by fluorescent assay relative to control
T1 sequence (whole entry): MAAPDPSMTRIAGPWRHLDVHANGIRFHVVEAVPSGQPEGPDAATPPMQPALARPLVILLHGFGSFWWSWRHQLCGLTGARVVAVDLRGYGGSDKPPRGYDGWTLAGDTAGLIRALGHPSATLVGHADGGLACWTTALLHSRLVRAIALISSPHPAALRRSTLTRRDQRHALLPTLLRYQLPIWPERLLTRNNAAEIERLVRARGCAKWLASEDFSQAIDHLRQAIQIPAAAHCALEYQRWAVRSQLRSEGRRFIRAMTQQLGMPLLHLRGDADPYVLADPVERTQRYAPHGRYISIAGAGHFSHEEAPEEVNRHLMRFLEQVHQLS

[2] = molecular target: T2, Bifunctional epoxide hydrolase 2 (Homo sapiens, UniProt P34913); assay: Inhibition of human recombinant soluble epoxide hydrolase using CMNPC as substrate after 10 mins by fluorescent assay
T2 sequence (P34913 whole entry): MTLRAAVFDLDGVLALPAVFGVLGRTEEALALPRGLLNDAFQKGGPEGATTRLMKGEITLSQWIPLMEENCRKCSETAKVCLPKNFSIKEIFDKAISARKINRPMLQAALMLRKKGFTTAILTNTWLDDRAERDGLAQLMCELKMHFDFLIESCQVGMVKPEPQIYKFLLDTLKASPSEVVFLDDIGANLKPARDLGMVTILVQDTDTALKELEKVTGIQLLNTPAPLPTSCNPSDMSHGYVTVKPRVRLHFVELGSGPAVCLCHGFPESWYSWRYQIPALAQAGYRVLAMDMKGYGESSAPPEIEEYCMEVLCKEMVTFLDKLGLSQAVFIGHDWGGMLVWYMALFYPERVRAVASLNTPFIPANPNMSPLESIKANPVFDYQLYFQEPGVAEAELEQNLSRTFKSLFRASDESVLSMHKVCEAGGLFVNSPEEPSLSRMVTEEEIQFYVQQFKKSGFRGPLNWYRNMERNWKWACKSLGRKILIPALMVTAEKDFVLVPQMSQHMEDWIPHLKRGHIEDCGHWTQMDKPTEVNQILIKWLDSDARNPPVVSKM

Enterococcus faecium = assay: Antibacterial activity against Enterococcus faecium; type: functional
Enterococcus faecalis = assay: Antibacterial activity against Enterococcus faecalis; type: functional
Staphylococcus aureus = assay: Antibacterial activity against Staphylococcus aureus; type: functional
Escherichia coli [3] = assay: Antibacterial activity against Escherichia coli K12; type: functional; details: K-12
Pseudomonas aeruginosa = assay: Antibacterial activity against Pseudomonas aeruginosa; type: functional
Klebsiella pneumoniae = assay: Antibacterial activity against Klebsiella pneumoniae; type: functional
Vero = assay: Cytotoxicity against african green monkey Vero cells after 72 hrs by MTT assay; type: cell-based; details: Chlorocebus sabaeus
[4] = molecular target: T3, Epoxide hydrolase B (Mycobacterium tuberculosis) (UniProt P95276); assay: Inhibition of Mycobacterium tuberculosis recombinant EphB expressed in Escherichia coli BL21 using CMNPC as substrate at 10 nM after 30 mins by fluorescent assay relative to control
T3 sequence (whole entry): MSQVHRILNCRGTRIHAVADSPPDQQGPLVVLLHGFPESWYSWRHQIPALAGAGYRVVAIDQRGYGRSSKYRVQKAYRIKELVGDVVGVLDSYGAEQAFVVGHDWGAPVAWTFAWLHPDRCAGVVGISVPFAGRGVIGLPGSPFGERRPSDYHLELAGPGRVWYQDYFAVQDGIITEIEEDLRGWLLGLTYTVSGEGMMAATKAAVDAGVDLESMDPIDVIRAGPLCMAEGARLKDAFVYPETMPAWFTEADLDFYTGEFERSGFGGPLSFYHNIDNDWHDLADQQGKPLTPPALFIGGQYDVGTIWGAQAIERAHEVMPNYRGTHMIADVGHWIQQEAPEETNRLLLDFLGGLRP

Bacillus anthracis = assay: microbe, parasite or virus in culture
[5] = tested on: Mycolicibacterium smegmatis; assay: microbe, parasite or virus in culture; details: str. MC2 155, 168 h
[6] = tested on: Mycobacterium tuberculosis; assay: microbe, parasite or virus in culture; details: H37Rv, 168 h
Escherichia coli [7] = assay: Antibacterial activity against Escherichia coli […] TolC; type: functional

Structure (SMILES)	inhibition [1]	IC50 [2]	MIC (Enterococcus faecium)	MIC (Enterococcus faecalis)	MIC (Staphylococcus aureus)	MIC (Escherichia coli [3])	MIC (Pseudomonas aeruginosa)	MIC (Klebsiella pneumoniae)	IC50 (Vero)	inhibition [4]	MIC (Bacillus anthracis)	MIC [5]	MIC [6]	MIC (Escherichia coli [7])
CC1(C)C2CCC(CNC(=O)Nc3ccc(F)c(F)c3F)C1C2 (configuration not stated)	103%	0.4 nM	> 200 µg/mL	> 200 µg/mL	3.13 µg/mL (≈ 9.59 µM)	> 200 µg/mL	> 200 µg/mL	> 200 µg/mL	15.5 µg/mL (≈ 47.5 µM)	38.6%	1.6 µg/mL (≈ 4.9 µM)	1.6 µg/mL (≈ 4.9 µM)	0.2 µg/mL (≈ 0.613 µM)	
O=C(Nc1ccc(F)c(F)c1F)NC1CCCCCCC1	91.6%	0.4 nM	> 200 µg/mL	> 200 µg/mL		> 200 µg/mL	> 200 µg/mL	> 200 µg/mL	63.4 µg/mL (≈ 211 µM)	95.7%	> 200 µg/mL	0.8 µg/mL (≈ 2.66 µM)		3.12 µg/mL (≈ 10.4 µM)
CN(C(=O)N(C)C1C2CC3CC(C2)CC1C3)c1ccc(F)c(F)c1F (configuration not stated)	25.2%	1840 nM	> 200 µg/mL	> 200 µg/mL	> 200 µg/mL	> 200 µg/mL	> 200 µg/mL	> 200 µg/mL		< 1%	> 200 µg/mL	200 µg/mL (≈ 568 µM)	12 µg/mL (≈ 34.1 µM)	12.5 µg/mL (≈ 35.5 µM)
CCCCCNC(=O)NC1C2CC3CC(C2)CC1C3 (configuration not stated)	90.5%	6.4 nM	> 200 µg/mL	> 200 µg/mL	> 200 µg/mL	> 200 µg/mL	> 200 µg/mL	> 200 µg/mL	11.6 µg/mL (≈ 43.9 µM)	58.6%	> 200 µg/mL	12.5 µg/mL (≈ 47.3 µM)	0.39 µg/mL (≈ 1.47 µM)	> 200 µg/mL
CCCNC(=O)NC1C2CC3CC(C2)CC1C3 (configuration not stated)	73.6%	61.4 nM	> 200 µg/mL	> 200 µg/mL	> 200 µg/mL	> 200 µg/mL	> 200 µg/mL	> 200 µg/mL	171 µg/mL (≈ 723 µM)	51.9%	> 200 µg/mL	200 µg/mL (≈ 846 µM)	12.5 µg/mL (≈ 52.9 µM)	> 200 µg/mL
Cc1ccc(NC(=O)NCc2cccc(F)c2)cc1Cl	19%	16.6 nM	> 200 µg/mL	> 200 µg/mL	> 200 µg/mL	> 200 µg/mL	> 200 µg/mL	> 200 µg/mL	342 µg/mL (≈ 1170 µM)	18.6%	> 200 µg/mL	> 200 µg/mL	6 µg/mL (≈ 20.5 µM)	> 200 µg/mL
Fc1ccc(NC(=S)NC2C3CC4CC(C3)CC2C4)c(F)c1F (configuration not stated)	35.5%	4.8 nM	> 200 µg/mL	> 200 µg/mL	> 200 µg/mL	> 200 µg/mL	> 200 µg/mL	> 200 µg/mL		21.3%	3.12 µg/mL (≈ 9.17 µM)		0.8 µg/mL (≈ 2.35 µM)	3.12 µg/mL (≈ 9.17 µM)
O=C(Nc1ccc(F)c(F)c1F)NC1CCCC1	36%	56.2 nM	> 200 µg/mL	> 200 µg/mL	> 200 µg/mL	> 200 µg/mL	> 200 µg/mL	> 200 µg/mL		86.4%	> 200 µg/mL	200 µg/mL (≈ 774 µM)	50 µg/mL (≈ 194 µM)	> 200 µg/mL
CCCCCCCNC(=O)Nc1cccc(C(F)(F)F)c1F	46.8%	0.4 nM	> 200 µg/mL	> 200 µg/mL	> 200 µg/mL	> 200 µg/mL	> 200 µg/mL	> 200 µg/mL		5.5%	> 200 µg/mL	100 µg/mL (≈ 312 µM)	3 µg/mL (≈ 9.37 µM)	> 200 µg/mL
N#Cc1ccc(NC(=O)NC2C3CC4CC(C3)CC2C4)cc1 (configuration not stated)	72.7%	1.1 nM	> 200 µg/mL	> 200 µg/mL	> 200 µg/mL		> 200 µg/mL	> 200 µg/mL	7.1 µg/mL (≈ 24 µM)	9%	12.5 µg/mL (≈ 42.3 µM)	12.5 µg/mL (≈ 42.3 µM)	0.4 µg/mL (≈ 1.35 µM)	
CCCCCCCNC(=O)Nc1ccc(F)c(F)c1F	92.8%	0.4 nM	> 200 µg/mL	> 200 µg/mL		> 200 µg/mL	> 200 µg/mL	> 200 µg/mL	130 µg/mL (≈ 450 µM)	87.5%	> 200 µg/mL	> 200 µg/mL	6 µg/mL (≈ 20.8 µM)	6.25 µg/mL (≈ 21.7 µM)
CN(C(=O)NC1C2CC3CC(C2)CC1C3)c1ccc(F)c(F)c1F (configuration not stated)	22.8%	38.1 nM	> 200 µg/mL	> 200 µg/mL	> 200 µg/mL	> 200 µg/mL	> 200 µg/mL	> 200 µg/mL		6.7%	> 200 µg/mL		6 µg/mL (≈ 17.7 µM)	25 µg/mL (≈ 73.9 µM)
O=C(Nc1ccccc1)Nc1ccccc1		390 nM												
CC[C@@H](CO)NCCN[C@@H](CC)CO [ETHAMBUTOL]													0.01 µg/mL (≈ 0.0489 µM)	
O=C(Nc1ccc(F)c(F)c1F)NC1C2CC3CC(C2)CC1C3 (configuration not stated)	71.4%		> 200 µg/mL	> 200 µg/mL	> 200 µg/mL	> 200 µg/mL	> 200 µg/mL	> 200 µg/mL			> 200 µg/mL			> 200 µg/mL
O=C(Nc1ccc(F)c(F)c1F)NC1CCCCC1	65.6%	1.2 nM	> 200 µg/mL	> 200 µg/mL	> 200 µg/mL	> 200 µg/mL	> 200 µg/mL	> 200 µg/mL	15.9 µg/mL (≈ 58.4 µM)	96.4%	> 200 µg/mL	12.5 µg/mL (≈ 45.9 µM)		> 200 µg/mL
NNC(=O)c1ccncc1 [ISONIAZID]													0.01 µg/mL (≈ 0.0729 µM)	
COc1ccc(NC(=O)NC2C3CC4CC(C3)CC2C4)cc1 (configuration not stated)	83.1%	14.3 nM	> 200 µg/mL	> 200 µg/mL	> 200 µg/mL		> 200 µg/mL	> 200 µg/mL	13.4 µg/mL (≈ 44.6 µM)	95.1%	> 200 µg/mL	100 µg/mL (≈ 333 µM)	0.4 µg/mL (≈ 1.33 µM)	
O=C(Nc1ccc(F)c(F)c1F)NC12CC3CC(CC(C3)C1)C2	92.2%		> 200 µg/mL	> 200 µg/mL		> 200 µg/mL	> 200 µg/mL	> 200 µg/mL	726 µg/mL (≈ 2240 µM)	89.7%	> 200 µg/mL	> 200 µg/mL		> 200 µg/mL
CCOCCNC(=O)NC12CC3CC(CC(C3)C1)C2	17.6%	525 nM	> 200 µg/mL	> 200 µg/mL	> 200 µg/mL	> 200 µg/mL	> 200 µg/mL	> 200 µg/mL		18.7%	> 200 µg/mL	> 200 µg/mL	50 µg/mL (≈ 188 µM)	> 200 µg/mL
O=C(Nc1ccc(F)c(F)c1F)OC1C2CC3CC(C2)CC1C3 (configuration not stated)	21.4%	464 nM	> 200 µg/mL	> 200 µg/mL	> 200 µg/mL	> 200 µg/mL	> 200 µg/mL	> 200 µg/mL		10.2%	> 200 µg/mL	50 µg/mL (≈ 154 µM)	6 µg/mL (≈ 18.4 µM)	12.5 µg/mL (≈ 38.4 µM)
CC(C)CCOc1ccc(NC(=O)Nc2ccc(OCCC(C)C)cc2)cc1	88.8%	6.5 nM	> 200 µg/mL	> 200 µg/mL	> 200 µg/mL	> 200 µg/mL	> 200 µg/mL	> 200 µg/mL		14.6%	> 200 µg/mL	> 200 µg/mL	200 µg/mL (≈ 520 µM)	3.12 µg/mL (≈ 8.11 µM)
